In assay [1] the target is T1, Beta-secretase 1 (Homo sapiens, UniProt P56817). The experiment in a line: Inhibition of BACE1 in human HEK293 cells overexpressing APP with Swedish mutation assessed as inhibition of amyloid beta 40 production. The format is cell-based.
For assay [2], the target named is T1, Beta-secretase 1. Kind of assay: Binding affinity to BACE assessed as displacement of [3H]BMS-599240.

T1 sequence (P56817 whole entry): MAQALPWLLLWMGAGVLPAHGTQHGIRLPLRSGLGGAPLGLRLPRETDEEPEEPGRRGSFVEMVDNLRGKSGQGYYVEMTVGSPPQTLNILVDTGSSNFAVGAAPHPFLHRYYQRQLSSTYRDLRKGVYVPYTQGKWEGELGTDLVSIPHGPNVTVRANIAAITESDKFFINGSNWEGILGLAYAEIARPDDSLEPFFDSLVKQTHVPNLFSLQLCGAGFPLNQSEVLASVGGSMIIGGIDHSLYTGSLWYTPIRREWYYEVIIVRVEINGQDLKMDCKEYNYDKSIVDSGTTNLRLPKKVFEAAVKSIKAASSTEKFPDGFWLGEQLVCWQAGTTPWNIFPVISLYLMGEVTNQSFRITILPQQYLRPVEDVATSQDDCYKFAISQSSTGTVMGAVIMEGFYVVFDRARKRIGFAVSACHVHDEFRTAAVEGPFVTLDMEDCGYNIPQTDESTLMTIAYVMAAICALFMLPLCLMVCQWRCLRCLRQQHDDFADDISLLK

Turning to `CCCN(CCC)C(=O)c1cc(C(C)=O)cc(C(=O)N[C@@H](Cc2cc(F)cc(F)c2)[C@H](O)CNCc2cccc(OC)c2)c1`, the IC50 on Beta-secretase 1 [1] (read-out: IC50) is 19 nM; on Beta-secretase 1 [2] (read-out: IC50), 4 nM.
As for `COc1cccc(CNC[C@@H](O)[C@H](Cc2cc(F)cc(F)c2)NC(=O)c2cc(C(C)=O)cc(C(=O)N[C@H](C)c3ccccc3)c2)c1`, the IC50 at Beta-secretase 1 [1] (read-out: IC50) was 73 nM; at Beta-secretase 1 [2] (read-out: IC50) it was 20 nM.
For the compound `CCCN(CCC)C(=O)c1cc(CCO)cc(C(=O)N[C@@H](Cc2cc(F)cc(F)c2)[C@H](O)CNCc2cccc(OC)c2)c1`, the half-maximal inhibitory concentration (IC50) at Beta-secretase 1 [1] (read-out: IC50) was determined as 53 nM; at Beta-secretase 1 [2] (read-out: IC50), 10 nM.
On to `CCCN(CCC)C(=O)c1cc(C(=O)N[C@@H](Cc2cc(F)cc(F)c2)[C@H](O)CNCc2cccc(OC)c2)cc(C(C)NC(C)=O)c1` (stereo partly drawn), for which the IC50 stood at 45 nM on Beta-secretase 1 [1] (read-out: IC50) and 20 nM at Beta-secretase 1 [2] (read-out: IC50).
As to `CO/N=C(/C)c1cc(C(=O)NC(C)c2ccc(F)cc2)cc(C(=O)N[C@@H](Cc2cc(F)cc(F)c2)[C@H](O)CNCc2cccc(OC)c2)c1` (stereo partly drawn), the IC50 was determined as 276 nM on Beta-secretase 1 [1] (read-out: IC50) and 24 nM on Beta-secretase 1 [2] (read-out: IC50).
With `COc1cccc(CNC[C@@H](O)[C@H](Cc2cc(F)cc(F)c2)NC(=O)c2cc(/C(C)=N/OCC(C)C)cc(N(c3ccccc3)S(C)(=O)=O)c2)c1`, the figures for the IC50 entry at Beta-secretase 1 [1] (hek293) and on Beta-secretase 1 [2] (read-out: IC50) were “Not Active” and 242 nM, respectively.
With `COc1cccc(CNC[C@@H](O)[C@H](Cc2cc(F)cc(F)c2)NC(=O)c2cccc(N(c3ccccc3)S(C)(=O)=O)c2)c1`, the IC50 at Beta-secretase 1 [1] (read-out: IC50) worked out at 137 nM; on Beta-secretase 1 [2] (read-out: IC50), 11 nM.
In the same order, the values of `CCCN(CCC)C(=O)c1cc(C(=O)N[C@@H](Cc2cc(F)cc(F)c2)[C@H](O)CNCc2cccc(OC)c2)cc(/C(C)=N\OCc2ccccc2)c1` are 534 nM and 67 nM.
Consider `CCCN(CCC)C(=O)c1cc(C(=O)N[C@@H](Cc2cc(F)cc(F)c2)[C@H](O)CNCc2cccc(OC)c2)cc(C(C)O)c1` (stereo partly drawn), for which the results for the IC50 on Beta-secretase 1 [1] (read-out: IC50) and at Beta-secretase 1 [2] (read-out: IC50) were 12 nM and 2 nM, respectively.
Take `CCCN(CCC)C(=O)c1cc(CC(COC)OC)cc(C(=O)N[C@@H](Cc2cc(F)cc(F)c2)[C@H](O)CNCc2cccc(OC)c2)c1` (stereo partly drawn): the IC50 entry on Beta-secretase 1 [1] (hek293) was “Not Active”; on Beta-secretase 1 [2] (read-out: IC50), greater than 2000 nM.
Consider `CO/N=C(\C)c1cc(C(=O)N[C@@H](Cc2cc(F)cc(F)c2)[C@H](O)CNCc2cccc(OC)c2)cc(N(c2ccccc2)S(C)(=O)=O)c1`, for which the results for the IC50 at Beta-secretase 1 [1] (read-out: IC50) and at Beta-secretase 1 [2] (read-out: IC50) were 86 nM and 10 nM, respectively.
For the compound `CCCN(CCC)C(=O)c1cc(C(=O)N[C@@H](Cc2cc(F)cc(F)c2)[C@H](O)CNCc2cccc(OC)c2)cc(/C(C)=N\O)c1`, the IC50 at Beta-secretase 1 [1] (read-out: IC50) was 27 nM; on Beta-secretase 1 [2] (read-out: IC50) it was 3 nM.
Turning to `CCCN(CCC)C(=O)c1cc(C(=O)N[C@@H](Cc2cc(F)cc(F)c2)[C@H](O)CNCc2cccc(OC)c2)cc(/C(C)=N\OCC(C)C)c1`, the IC50 on Beta-secretase 1 [1] (read-out: IC50) came out at 367 nM; on Beta-secretase 1 [2] (read-out: IC50), 55 nM.
`COc1cccc(CNC[C@@H](O)[C@H](Cc2cc(F)cc(F)c2)NC(=O)c2cc(/C(C)=N\O)cc(N(C)S(C)(=O)=O)c2)c1`: the IC50 was found to be 429 nM on Beta-secretase 1 [1] (read-out: IC50) and 76 nM at Beta-secretase 1 [2] (read-out: IC50).
`CO/N=C(/C)c1cc(C(=O)N[C@@H](Cc2cc(F)cc(F)c2)[C@H](O)CNCc2cccc(OC)c2)cc(N2CCCCS2(=O)=O)c1`: the IC50 is 345 nM at Beta-secretase 1 [1] (read-out: IC50) and 52 nM on Beta-secretase 1 [2] (read-out: IC50).
As for `COc1cccc(CNC[C@@H](O)[C@H](Cc2cc(F)cc(F)c2)NC(=O)c2cccc(C(=O)N[C@H](C)c3ccccc3)c2)c1`, the results for the IC50 on Beta-secretase 1 [1] (read-out: IC50) and on Beta-secretase 1 [2] (read-out: IC50) were 198 nM and 89 nM, respectively.
`COc1cccc(CNC[C@@H](O)[C@H](Cc2cc(F)cc(F)c2)NC(=O)c2cc(C(C)=O)cc(N(c3ccccc3)S(C)(=O)=O)c2)c1`: the IC50 was greater than 263 nM at Beta-secretase 1 [1] (read-out: IC50) and 17 nM on Beta-secretase 1 [2] (read-out: IC50).
Regarding `C=CCO/N=C(/C)c1cc(C(=O)N[C@@H](Cc2cc(F)cc(F)c2)[C@H](O)CNCc2cccc(OC)c2)cc(C(=O)N(CCC)CCC)c1`, the IC50 at Beta-secretase 1 [1] (read-out: IC50) was 120 nM; at Beta-secretase 1 [2] (read-out: IC50), 10 nM.
In the same order, the values of `COc1cccc(CNC[C@@H](O)[C@H](Cc2cc(F)cc(F)c2)NC(=O)c2cc(/C(C)=N\OCc3ccccc3)cc(N3CCCCS3(=O)=O)c2)c1` are 821 nM and 31 nM.
On to `CCCO/N=C(/C)c1cc(C(=O)N[C@@H](Cc2cc(F)cc(F)c2)[C@H](O)CNCc2cccc(OC)c2)cc(N(c2ccccc2)S(C)(=O)=O)c1`, for which the values for the IC50 at Beta-secretase 1 [1] (read-out: IC50) and on Beta-secretase 1 [2] (read-out: IC50) were 184 nM and 6 nM, respectively.
As to `COc1cccc(CNC[C@@H](O)[C@H](Cc2cc(F)cc(F)c2)NC(=O)c2cc(C(C)=O)cc(C(=O)NC(C)c3ccc(F)cc3)c2)c1` (stereo partly drawn), the IC50 was found to be 91 nM on Beta-secretase 1 [1] (read-out: IC50) and 51 nM at Beta-secretase 1 [2] (read-out: IC50).
`COc1cccc(CNC[C@@H](O)[C@H](Cc2cc(F)cc(F)c2)NC(=O)c2cc(C(C)O)cc(N3CCCCS3(=O)=O)c2)c1` (stereo partly drawn): the figures for the IC50 on Beta-secretase 1 [1] (read-out: IC50) and at Beta-secretase 1 [2] (read-out: IC50) were 305 nM and 43 nM, respectively.
With `COc1cccc(CNC[C@@H](O)[C@H](Cc2cc(F)cc(F)c2)NC(=O)c2cc(C(C)O)cc(N(c3ccccc3)S(C)(=O)=O)c2)c1` (stereo partly drawn), the IC50 result at Beta-secretase 1 [1] (hek293) and on Beta-secretase 1 [2] was “Not Active” each time.
For `COc1cccc(CNC[C@@H](O)[C@H](Cc2cc(F)cc(F)c2)NC(=O)c2cc(/C(C)=N\OCc3ccccc3)cc(N(C)S(C)(=O)=O)c2)c1`, the IC50 at Beta-secretase 1 [1] (read-out: IC50) was greater than 333 nM; at Beta-secretase 1 [2] (read-out: IC50) it was 9 nM.

(Values after ChEMBL document CHEMBL1151886, “Synthesis and SAR of hydroxyethylamine based phenylcarboxyamides as inhibitors of BACE” (Bioorg Med Chem Lett, 2009).)
